Source: patent publication US8445510B2, “Fused bicyclic kinase inhibitors” (OSI Pharmaceuticals, LLC, priority 2011, dated 2013)

Key:
RON = target: T1, RON (Homo sapiens, UniProt Q04912); assay: sfRON cell mechanistic assay (HeLa), phosphorylated RON ELISA; assay type: cell-based; conditions: HeLa cells transfected with sfRON; inhibition of phosphorylated RON; four hours incubation; at least duplicate experiments; read-out: sfRON mech IC50
T1 sequence (Q04912 913-1400): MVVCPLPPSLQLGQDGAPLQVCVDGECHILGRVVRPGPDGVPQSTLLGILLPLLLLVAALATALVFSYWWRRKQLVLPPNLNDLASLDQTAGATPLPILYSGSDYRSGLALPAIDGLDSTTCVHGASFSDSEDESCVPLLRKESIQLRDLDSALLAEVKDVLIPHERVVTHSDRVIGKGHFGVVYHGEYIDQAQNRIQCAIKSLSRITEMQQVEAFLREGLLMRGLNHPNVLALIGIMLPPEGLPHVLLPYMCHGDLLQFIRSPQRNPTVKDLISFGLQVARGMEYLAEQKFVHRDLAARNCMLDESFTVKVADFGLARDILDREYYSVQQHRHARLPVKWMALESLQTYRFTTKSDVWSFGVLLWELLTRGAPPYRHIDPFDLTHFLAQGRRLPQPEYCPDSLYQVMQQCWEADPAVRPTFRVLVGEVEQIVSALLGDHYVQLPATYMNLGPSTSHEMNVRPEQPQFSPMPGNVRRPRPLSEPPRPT
Outline: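 HeLa cells transiently transfected with sfRON plasmid, then exposed 4 h at 37 °C to a 6-point compound series (typically 10 μM to 3 nM, 0.5% DMSO). Phospho-RON (pY1238/1239) in lysates measured by sandwich ELISA with luminescence. IC50 from 4-parameter fit of percent-of-DMSO-control data, at least duplicate runs.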

Karpas-299 cells = assay: Karpas-299 cell proliferation assay (CellTiter-Glo); assay type: cell-based; conditions: Homo sapiens, 72 h; Karpas-299 cell line (NPM-ALK); 3 days incubation; at least duplicate experiments; read-out: Prolif. IC50

Compound: Cc1nn(C[C@@H](O)CO)c(C)c1-c1cnc2[nH]cc([C@H](C)c3c(Cl)ccc(F)c3Cl)c2c1 [Example 66, (2R)-3-(4-{3-[(1S)-1-(2,6-Dichloro-3-fluorophenyl)ethyl]-1H-pyrrolo[2,3-b]pyridin-5-yl}-3,5-dimethyl-1H-pyrazol-1-yl)propane-1,2-diol]
- IC50 (RON): 200 to 1000 nM
- IC50 (Karpas-299 cells): ≤ 50 nM

Compound: Cc1c(-c2cnc3[nH]cc([C@H](C)c4c(Cl)ccc(F)c4Cl)c3c2)cnn1[C@H]1CC[C@H](O)CC1 [Example 67, trans-4-(4-{3-[(1S)-1-(2,6-Dichloro-3-fluorophenyl)ethyl]-1H-pyrrolo[2,3-b]pyridin-5-yl}-5-methyl-1H-pyrazol-1-yl)cyclohexanol]
- IC50 (RON): 200 to 1000 nM
- IC50 (Karpas-299 cells): 50 to 200 nM

Compound: Cc1nn(C[C@@H](O)CO)c(C)c1-c1cnc2[nH]cc([C@H](C)c3c(OC(F)F)ccc(F)c3Cl)c2c1 [Example 69, (2R)-3-[4-(3-{(1S)-1-[2-Chloro-6-(difluoromethoxy)-3-fluorophenyl]ethyl}-1H-pyrrolo[2,3-b]pyridin-5-yl)-3,5-dimethyl-1H-pyrazol-1-yl]propane-1,2-diol]
- IC50 (RON): ≤ 200 nM
- IC50 (Karpas-299 cells): ≤ 50 nM

Compound: Cc1c(-c2cnc3[nH]cc([C@H](C)c4c(OC(F)F)ccc(F)c4Cl)c3c2)cnn1C[C@H](O)CO [Example 70, (2S)-3-[4-(3-{(1S)-1-[2-Chloro-6-(difluoromethoxy)-3-fluorophenyl]ethyl}-1H-pyrrolo[2,3-b]pyridin-5-yl)-5-methyl-1H-pyrazol-1-yl]propane-1,2-diol]
- IC50 (RON): ≤ 200 nM
- IC50 (Karpas-299 cells): ≤ 50 nM

Compound: Cc1nn(C[C@H](O)CO)cc1-c1cnc2[nH]cc([C@H](C)c3c(OC(F)F)ccc(F)c3Cl)c2c1 [Example 71, (2S)-3-[4-(3-{(1S)-1-[2-Chloro-6-(difluoromethoxy)-3-fluorophenyl]ethyl}-1H-pyrrolo[2,3-b]pyridin-5-yl)-3-methyl-1H-pyrazol-1-yl]propane-1,2-diol]
- IC50 (RON): ≤ 200 nM
- IC50 (Karpas-299 cells): ≤ 50 nM

Compound: CCc1c(-c2cnc3[nH]cc([C@H](C)c4c(OC(F)F)ccc(F)c4Cl)c3c2)cnn1CC(C)(C)O [Example 72, 1-[4-(3-{(1S)-1-[2-Chloro-6-(difluoromethoxy)-3-fluorophenyl]ethyl}-1H-pyrrolo[2,3-b]pyridin-5-yl)-5-ethyl-1H-pyrazol-1-yl]-2-methylpropan-2-ol]
- IC50 (RON): 200 to 1000 nM
- IC50 (Karpas-299 cells): 50 to 200 nM

Compound: CCc1nn(CC(C)(C)O)cc1-c1cnc2[nH]cc([C@H](C)c3c(OC(F)F)ccc(F)c3Cl)c2c1 [Example 73, 1-[4-(3-{(1S)-1-[2-Chloro-6-(difluoromethoxy)-3-fluorophenyl]ethyl}-1H-pyrrolo[2,3-b]pyridin-5-yl)-3-ethyl-1H-pyrazol-1-yl]-2-methylpropan-2-ol]
- IC50 (RON): 200 to 1000 nM
- IC50 (Karpas-299 cells): 50 to 200 nM

Compound: Cc1c(-c2cnc3[nH]cc([C@H](C)c4c(OC(F)F)ccc(F)c4Cl)c3c2)cnn1[C@H]1CC[C@H](O)CC1 [Example 74, trans-4-[4-(3-{(1S)-1-[2-Chloro-6-(difluoromethoxy)-3-fluorophenyl]ethyl}-1H-pyrrolo[2,3-b]pyridin-5-yl)-5-methyl-1H-pyrazol-1-yl]cyclohexanol]
- IC50 (RON): ≤ 200 nM
- IC50 (Karpas-299 cells): ≤ 50 nM

Compound: Cc1c(-c2cnc3[nH]cc([C@H](C)c4c(OC(F)F)ccc(F)c4Cl)c3c2)cnn1[C@@H]1C[C@@H](O)[C@@H](O)C1 [Example 75, (1R,2S,4S)-4-[4-(3-{(1S)-1-[2-Chloro-6-(difluoromethoxy)-3-fluoro-phenyl]ethyl}-1H-pyrrolo[2,3-b]pyridin-5-yl)-5-methyl-1H-pyrazol-1-yl]cyclopentane-1,2-diol]
- IC50 (RON): ≤ 200 nM
- IC50 (Karpas-299 cells): ≤ 50 nM

Compound: Cc1c(-c2cnc3[nH]cc([C@H](C)c4c(OC(F)F)ccc(F)c4Cl)c3c2)cnn1[C@H]1CC[C@H](C(N)=O)CC1 [Example 76, trans-4-[4-(3-{(1S)-1-[2-Chloro-6-(difluoromethoxy)-3-fluorophenyl]ethyl}-1H-pyrrolo[2,3-b]pyridin-5-yl)-5-methyl-1H-pyrazol-1-yl]cyclohexanecarboxamide]
- IC50 (RON): ≤ 200 nM
- IC50 (Karpas-299 cells): ≤ 50 nM

Compound: CCc1nn([C@H]2CC[C@H](O)CC2)cc1-c1cnc2[nH]cc([C@H](C)c3c(OC(F)F)ccc(F)c3Cl)c2c1 [Example 77, trans-4-[4-(3-{(1S)-1-[2-Chloro-6-(difluoromethoxy)-3-fluorophenyl]ethyl}-1H-pyrrolo[2,3-b]pyridin-5-yl)-3-ethyl-1H-pyrazol-1-yl]cyclohexanol]
- IC50 (RON): ≤ 200 nM
- IC50 (Karpas-299 cells): 50 to 200 nM

Compound: CCc1c(-c2cnc3[nH]cc([C@H](C)c4c(OC(F)F)ccc(F)c4Cl)c3c2)cnn1[C@H]1CC[C@H](O)CC1 [Example 78, trans-4-[4-(3-{(1S)-1-[2-Chloro-6-(difluoromethoxy)-3-fluorophenyl]ethyl}-1H-pyrrolo[2,3-b]pyridin-5-yl)-5-ethyl-1H-pyrazol-1-yl]cyclohexanol]
- IC50 (RON): 200 to 1000 nM
- IC50 (Karpas-299 cells): ≤ 50 nM

Compound: Cc1c(-c2cnc3[nH]cc([C@H](C)c4c(OC(F)F)ccc(F)c4Cl)c3c2)cnn1[C@H]1C[C@@](C)(O)C1 [Example 79, cis-3-[4-(3-{(1S)-1-[2-Chloro-6-(difluoromethoxy)-3-fluorophenyl]ethyl}-1H-pyrrolo[2,3-b]pyridin-5-yl)-5-methyl-1H-pyrazol-1-yl]-1-methylcyclobutanol]
- IC50 (RON): 200 to 1000 nM
- IC50 (Karpas-299 cells): 50 to 200 nM

Compound: Cc1c(-c2cnc3[nH]cc([C@H](C)c4c(OC(F)F)ccc(F)c4Cl)c3c2)cnn1[C@H]1C[C@@H](O)C1 [Example 81, cis-3-[4-(3-{(1S)-1-[2-Chloro-6-(difluoromethoxy)-3-fluorophenyl]ethyl}-1H-pyrrolo[2,3-b]pyridin-5-yl)-5-methyl-1H-pyrazol-1-yl]cyclobutanol]
- IC50 (RON): 200 to 1000 nM
- IC50 (Karpas-299 cells): ≤ 50 nM

Compound: C[C@H](c1c(OC(F)F)ccc(F)c1Cl)c1c[nH]c2ncc(-c3cnn([C@H]4CC[C@H](O)CC4)c3Cl)cc12 [Example 82, trans-4-[5-Chloro-4-(3-{(1S)-1-[2-chloro-6-(difluoromethoxy)-3-fluorophenyl]ethyl}-1H-pyrrolo[2,3-b]pyridin-5-yl)-1H-pyrazol-1-yl]cyclohexanol]
- IC50 (RON): 200 to 1000 nM
- IC50 (Karpas-299 cells): 50 to 200 nM

Compound: C[C@H](c1c(OC(F)F)ccc(F)c1Cl)c1c[nH]c2ncc(-c3cnn([C@H]4CC[C@H](O)CC4)c3CO)cc12 [Example 83, trans-4-[4-(3-{(1S)-1-[2-Chloro-6-(difluoromethoxy)-3-fluorophenyl]ethyl}-1H-pyrrolo[2,3-b]pyridin-5-yl)-5-(hydroxymethyl)-1H-pyrazol-1-yl]cyclohexanol]
- IC50 (RON): 200 to 1000 nM
- IC50 (Karpas-299 cells): 50 to 200 nM

Compound: C[C@H](c1c(OC(F)F)ccc(F)c1Cl)c1c[nH]c2ncc(-c3cnn([C@H]4CC[C@H](O)CC4)c3F)cc12 [Example 84, trans-4-[4-(3-{(1S)-1-[2-Chloro-6-(difluoromethoxy)-3-fluorophenyl]ethyl}-1H-pyrrolo[2,3-b]pyridin-5-yl)-5-fluoro-1H-pyrazol-1-yl]cyclohexanol]
- IC50 (RON): 200 to 1000 nM
- IC50 (Karpas-299 cells): 50 to 200 nM

Compound: [2H]C([2H])([2H])c1c(-c2cnc3[nH]cc([C@H](C)c4c(OC(F)F)ccc(F)c4Cl)c3c2)cnn1[C@H]1CC[C@H](O)CC1 [Example 85, trans-4-[4-(3-{(1S)-1-[2-Chloro-6-(difluoromethoxy)-3-fluorophenyl]ethyl}-1H-pyrrolo[2,3-b]pyridin-5-yl)-5-(^2H3)methyl-1H-pyrazol-1-yl]cyclohexanol]
- IC50 (RON): 200 to 1000 nM
- IC50 (Karpas-299 cells): ≤ 50 nM
